{"source": "patent US12377065B2", "about": "“Compositions for treatment of substance use disorder” (UNIVERSITY OF NORTH TEXAS HEALTH SCIENCE CENTER, priority 2019, dated 2025)", "key": {"[1]": {"tested_on": "Swiss-Webster mice", "experiment": "Cocaine-conditioned locomotor response, acquisition and expression (Example 2)"}, "[2]": {"tested_on": "Swiss-Webster mice", "experiment": "Acute cocaine-induced hyperlocomotion (Example 2)", "conditions": "cocaine 40 mg/kg; for effect on acute cocaine-induced hyperlocomotion: all doses tested, i.p., ANOVA effect of treatment"}, "[3]": {"tested_on": "Swiss-Webster mice", "experiment": "Cocaine-conditioned locomotor activity, expression test (Example 1)", "conditions": "last 15 minutes, vs Paired-vehicle, cocaine 40 mg/kg"}, "[4]": {"tested_on": "mice", "experiment": "Cocaine-conditioned place preference", "type": "in vivo", "experimental": "All mice underwent standard place conditioning. As depicted in FIG. 3, the procedures of the first four days were identical to those described previously (Shetty et al., 2017). A preference score was calculated for each individual mouse using the following equation: Time spent on S+ (at test)−Time spent on S+ (at pretest). The preference score assesses the nature and magnitude of drug conditioning to the S+ floor, with positive numbers reflecting an increase in preference for S+ following the experience with cocaine and negative numbers indicating a decrease in preference following experience with cocaine. A second test session was conducted 24 hours later (on day 5). This test was identical to the test session on day 4 except that 30 minutes prior to testing, mice were pretreated with either 5 or 10 mg/kg DMTU (i.p.). A preference score was calculated after the second test in a similar fashion as described for the first preference test.\nData Analysis. […] The existence of subgroups was determined through application of K-means clustering analysis (SYSTAT v. 13.1). In this fashion, Test 1 data was partitioned into 3 subgroups: mice with high positive preference scores (labeled as High Seeker group), mice with low positive preference scores (labeled as Low Seeker group), and mice with negative preference scores (labeled as Avoider group).\nData from the mice treated with 5 mg/kg DMTU during Test 2 were analyzed separately from data from mice treated with 10 mg/kg DMTU. Separate one-way repeated measures analysis of variance (ANOVA) was conducted, with test (comparison of preference score on test day 1 and day 2) as a within-subject factor.\nTo assess the ability of DMTU (by either the 5 mg/kg or 10 mg/kg dose) to reduce cocaine-induced preference on different subsets of mice, within-subject planned comparisons of preference scores on test 1 and 2 were performed for each cluster separately (Avoider, Low Seeker, High Seeker). Alpha was set to 0.05."}, "[5]": {"tested_on": "Swiss-Webster mice", "experiment": "Nicotine-induced locomotor activity test", "type": "in vivo", "conditions": "60-90 min; for motor activity, compound alone: no nicotine, vs vehicle", "experimental": "Test Compounds. […] Chantix (varencline, 3 mg/kg) was obtained from National Institute on Drug Abuse. All drugs were dissolved in 0.9% saline and pH was maintained at 7.\nTesting Procedures. […] In all studies, horizontal activity (interruption of photocell beams) was measured for 120 min within 10-min periods.\nDifferent groups of Swiss-Webster mice were pretreated via injection (IP) with either DMTU (5 or 10 mg/kg), or Chantix (varenicline, 3 mg/kg) or vehicle (0.9% saline) for 30 minutes (FIG. 10). Following pretreatment all groups were mice were injected via the subcutaneous (sc) route with either 0.9% saline or r nicotine (1.6 mg/kg) just prior to placement in the activity chamber. The activity of all mice were recorded for a period of 2-h (FIG. 10)."}, "[6]": {"conditions": "all doses tested, i.p., ANOVA effect of treatment, last 15 min"}}, "data": [{"smiles": "CNC(=S)NC", "note": "[DMTU, N,N′-dimethylthiourea]", "values": [{"measurement": "acquisition of the cocaine-conditioned locomotor response", "setting": "[1]; 50 mg/kg i.p., post-hoc", "result": "significantly attenuated acquisition"}, {"measurement": "expression of the cocaine-conditioned locomotor response", "setting": "[1]; 25-50 mg/kg i.p., post-hoc", "result": "significantly attenuating expression"}, {"measurement": "ED50:AD50 ratio", "setting": "[1]", "result": 4.676}, {"measurement": "acquisition of the cocaine-conditioned locomotor response", "setting": "[1]; [6]", "result": "significant main effect"}, {"measurement": "expression of the cocaine-conditioned locomotor response", "setting": "[1]; [6]", "result": "significant effect on expression"}, {"measurement": "effect on acute cocaine-induced hyperlocomotion", "setting": "[2]", "result": "no significant main effect"}, {"measurement": "expression of cocaine-conditioned locomotor activity (horizontal activity, counts)", "setting": "[3]; 5 mg/kg i.p. 30 min before expression test", "result": "did not affect activity"}, {"measurement": "expression of cocaine-conditioned locomotor activity (horizontal activity, counts)", "setting": "[3]; 10 mg/kg i.p. 30 min before expression test", "result": "significantly inhibited cocaine-conditioned locomotor activity"}, {"measurement": "cocaine-conditioned place preference score, Test 2 vs Test 1", "setting": "[4]; 5 mg/kg i.p. 30 min before Test 2, clusters combined, cocaine 15 mg/kg", "result": "not significantly altered"}, {"measurement": "cocaine-conditioned place preference score, Test 2 vs Test 1", "setting": "[4]; 5 mg/kg i.p., Avoider group", "result": "Neither dose of DMTU succeeded in blocking preference scores"}, {"measurement": "cocaine-conditioned place preference score, Test 2 vs Test 1", "setting": "[4]; 5 mg/kg i.p., High Seeker subset", "result": "significantly reduced preference scores"}, {"measurement": "cocaine-conditioned place preference score, Test 2 vs Test 1", "setting": "[4]; 5 mg/kg i.p., Low Seeker group", "result": "Neither dose of DMTU succeeded in blocking preference scores"}, {"measurement": "cocaine-conditioned place preference score, Test 2 vs Test 1", "setting": "[4]; 10 mg/kg i.p. 30 min before Test 2, clusters combined, cocaine 15 mg/kg", "result": "not significantly altered"}, {"measurement": "cocaine-conditioned place preference score, Test 2 vs Test 1", "setting": "[4]; 10 mg/kg i.p., Avoider group", "result": "Neither dose of DMTU succeeded in blocking preference scores"}, {"measurement": "cocaine-conditioned place preference score, Test 2 vs Test 1", "setting": "[4]; 10 mg/kg i.p., High Seeker subset", "result": "significantly reduced preference scores"}, {"measurement": "cocaine-conditioned place preference score, Test 2 vs Test 1", "setting": "[4]; 10 mg/kg i.p., Low Seeker group", "result": "Neither dose of DMTU succeeded in blocking preference scores"}, {"measurement": "nicotine-induced stimulant locomotor activity (horizontal activity, counts)", "setting": "[5]; 5 mg/kg IP 30 min pretreatment + nicotine 1.6 mg/kg sc, only 10 mg/kg was significant", "result": "modulated nicotine induced stimulant action"}, {"measurement": "nicotine-induced stimulant locomotor activity (horizontal activity, counts)", "setting": "[5]; 10 mg/kg IP 30 min pretreatment + nicotine 1.6 mg/kg sc, vs nicotine alone", "result": "significantly reduced the nicotine stimulant activity"}, {"measurement": "motor activity, compound alone", "setting": "[5]; DMTU alone (5 or 10 mg/kg IP)", "result": "failed to alter the motor activity"}]}, {"smiles": "CC(=O)N[C@@H](CS)C(=O)O", "note": "[NAC, N-acetylcysteine]", "values": [{"measurement": "expression of the cocaine-conditioned locomotor response", "setting": "[1]; 100 mg/kg i.p., post-hoc", "result": "significant attenuation"}, {"measurement": "acquisition of the cocaine-conditioned locomotor response", "setting": "[1]; 250 mg/kg i.p., post-hoc vs paired control", "result": "significantly attenuated acquisition"}, {"measurement": "ED50:AD50 ratio", "setting": "[1]", "result": 1.2731}, {"measurement": "acquisition of the cocaine-conditioned locomotor response", "setting": "[1]; [6]", "result": "no significant main effect"}, {"measurement": "expression of the cocaine-conditioned locomotor response", "setting": "[1]; [6]", "result": "main effect"}, {"measurement": "effect on acute cocaine-induced hyperlocomotion", "setting": "[2]", "result": "no significant main effect"}]}, {"smiles": "c1cnc2cc3c(cc2n1)[C@@H]1CNC[C@H]3C1", "note": "[Chantix, varenicline]", "values": [{"measurement": "motor activity with nicotine", "setting": "[5]; 3 mg/kg IP 30 min pretreatment + nicotine 1.6 mg/kg sc", "result": "significant reduction"}, {"measurement": "motor activity, compound alone", "setting": "[5]; 3 mg/kg IP alone", "result": "significant reduction"}]}, {"smiles": "COc1cc(C(C)=O)ccc1O", "note": "[Apocynin, apocynin]", "values": [{"measurement": "expression of the cocaine-conditioned locomotor response", "setting": "[1]; 25 mg/kg i.p., initial 15 min of the test, post hoc", "result": "facilitated expression of the conditioned response"}, {"measurement": "acquisition of the cocaine-conditioned locomotor response", "setting": "[1]; [6]", "result": "no effect on acquisition"}, {"measurement": "expression of the cocaine-conditioned locomotor response", "setting": "[1]; [6]", "result": "no effect on expression"}, {"measurement": "effect on acute cocaine-induced hyperlocomotion", "setting": "[2]", "result": "no significant main effect"}]}, {"smiles": "O=C1O[C@H]([C@@H](O)CO)C(O)=C1O", "note": "[Vitamin C, L-ascorbic acid]", "values": [{"measurement": "acquisition of the cocaine-conditioned locomotor response", "setting": "[1]; 100 mg/kg i.p., initial 15 min of the test, post-hoc", "result": "facilitated acquisition of the conditioned locomotor response"}, {"measurement": "acquisition of the cocaine-conditioned locomotor response", "setting": "[1]; [6]", "result": "failed to attenuate acquisition"}, {"measurement": "expression of the cocaine-conditioned locomotor response", "setting": "[1]; [6]", "result": "failed to attenuate"}, {"measurement": "effect on acute hyperkinetic effect of cocaine", "setting": "[2]; 100 mg/kg i.p.", "result": "facilitated the acute hyperkinetic effect of cocaine"}]}, {"smiles": "Cc1c(C)c2c(c(C)c1O)CC[C@@](C)(CCC[C@H](C)CCC[C@H](C)CCCC(C)C)O2", "note": "[Vitamin E, (+)-alpha-tocopherol]", "values": [{"measurement": "acquisition of the cocaine-conditioned locomotor response", "setting": "[1]; [6]", "result": "failed to attenuate acquisition"}, {"measurement": "expression of the cocaine-conditioned locomotor response", "setting": "[1]; [6]", "result": "failed to attenuate"}, {"measurement": "effect on acute cocaine-induced hyperlocomotion", "setting": "[2]", "result": "had no effect on the acute effect of cocaine"}]}]}
